Values quoted from earlier work in patent publication EP3473244A1, “CONTROLLED RELEASE ORAL TAMSULOSIN HYDROCHLORIDE” (Veru Inc., priority 2017, dated 2019).

Conditions: reported value used to set PK sampling times

## CCOc1ccccc1OCCN[C@H](C)Cc1ccc(OC)c(S(N)(=O)=O)c1 [Tamsulosin]
  T ½: 5 h
